We go through 13 compounds from PubChem BioAssay (NCI).

Several values for one entry are separate records, joined by “and”; a condition that tells them apart may be missing. Equal values may be shown once.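 A five-concentration, 48-hour dose response in 96-well plates underlies each endpoint, interpolated linearly between surrounding concentrations. GI50 = concentration required for 50% inhibition of growth. At the TGI there is no net growth.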

Common to all, as to assay: NCI anticancer screen, dose series, 48 h
Experiment [1] has as its system SF-539 CNS.
In experiment [2] the test system is NCI-H23 lung.
For experiment [3], the system named is LXFL 529 NSCLC.
Experiment [4] relates to SW-620 colon.
For experiment [5], the system named is OVCAR-8 ovarian.
The test system of experiment [6] is RPMI-8226 leukemia.
Experiment [7] deals with KM12 colon.
The subject of experiment [8] is OVCAR-5 ovarian.
The test system of experiment [9] is XF 498 CNS.
For experiment [10], the system named is DU-145 prostate.

For `CC(/C=C/C(=O)c1sc(-n2nc(-c3ccccc3)cc2-c2ccccc2)nc1C)=C\c1ccccc1`, the TGI in experiment [1] is more than 100 µM; in [2] it was 68.1 µM; in [3], more than 100 µM; in [4], more than 100 µM; in experiment [5], more than 100 µM; in [6] it was more than 100 µM. Moreover, the TGI in experiment [7] is more than 100 µM. Also, the GI50 in [4] is more than 100 µM.

`COc1ccc(/C=N/N=C(\N)NO)c(Cl)c1O`: the TGI in [1] is 46.5 µM; in [2] it was 63.7 µM; in experiment [3], more than 100 µM; in [4] it was more than 100 µM; in experiment [5], more than 100 µM; in experiment [8] it was 6.86 µM. Besides, the TGI in experiment [6] and in experiment [7] was more than 100 µM each time.

Take `CCOC(=O)Cc1nc2ccccc2s1`: the TGI in experiment [1] was found to be 36.6 µM; in experiment [2] it was 29.3 µM; in experiment [3], 29.4 µM; in [4] it was 34.3 µM; in [5] it was 32.8 µM; in experiment [8], 57 µM. Besides, the TGI is more than 10 µM in [7] and 28 µM in [9].

Take `N#CC(/C(=N\NC(=O)c1ccncc1)C(=O)Nc1ccc([N+](=O)[O-])cc1[N+](=O)[O-])c1nc(-c2ccc(Br)cc2)cs1` (configuration not stated): the TGI in [1], in experiment [3], in experiment [4], in [5], in [8] and in [6] was more than 100 µM in each case. In [7], this compound had a TGI of more than 100 µM.

Take `CCSC(SCC)c1cc2c(cc1Br)OCO2`: the TGI in experiment [1] is 35.5 µM; in [2], 88.9 µM; in experiment [4] it was more than 100 µM; in experiment [5], more than 100 µM; in experiment [8], more than 100 µM; in [6] it was 60.3 µM. In addition, the results for the TGI in [7] and in experiment [9] were more than 100 µM and 59.4 µM, respectively.

As to `Cc1c(-c2ccccc2)c(=O)oc2ccc(Cl)cc12`, the TGI in [1], in [2], in experiment [3], in [4], in experiment [5] and in experiment [8] was more than 100 µM each time. Further, the TGI in [6] and in experiment [7] was more than 100 µM throughout.

On to `COc1ccc(CCN2CCCN3C2=Nc2ccccc2S3(=O)=O)cc1`, for which the GI50 in experiment [1] is 0.272 µM; in experiment [2] it was 0.474 µM; in [10] it was 0.496 µM; in experiment [4], 0.381 µM; in experiment [5], 0.802 µM; in experiment [8], 20.2 µM. In addition, the GI50 in experiment [6] is 0.563 µM; in experiment [7], 0.451 µM. The TGI in experiment [1] is 1.04 µM; in experiment [2] it was more than 100 µM; in experiment [10], more than 100 µM; in [4], more than 100 µM; in [5], more than 100 µM; in [8] it was more than 100 µM. Moreover, the results for the TGI in experiment [6] and in experiment [7] were 53.5 µM and more than 100 µM, respectively.

Consider `O=C1/C(=C\c2ccc(F)cc2)CN(C(=O)c2ccc([N+](=O)[O-])cc2)C/C1=C\c1ccc(F)cc1`, for which the GI50 was 2.93 µM in experiment [1]; 3.6 µM in experiment [2]; 4.31 µM in [10]; 0.885 µM in [4]; 2.97 µM in experiment [5]; 4.6 µM in [8]. The GI50 is 0.302 µM in experiment [6] and 0.568 µM in experiment [7]. Also, the TGI in experiment [1] is 10.2 µM; in experiment [2] it was 15.6 µM; in [10], more than 51.8 µM; in experiment [4] it was 5.35 µM; in experiment [5] it was more than 100 µM; in experiment [8], 49.5 µM. Besides, the TGI in [6] came to 1.62 µM; in [7], 2.19 µM.

Take `CCNCCC1(CC)C(=O)NC(=O)NC1=O`: the TGI in experiment [1], in experiment [2], in experiment [10], in [4], in experiment [5] and in [8] was more than 100 µM throughout. In addition, the TGI in experiment [6] and in experiment [7] was more than 100 µM each time.

As for `CCCCCCCCCCCCCCCCOCC(CN(C)CCN(C)C)OCCCCCCCCCCCCCCCC` (configuration not stated), the TGI in experiment [2], in experiment [3], in experiment [4], in [5], in experiment [8] and in experiment [6] was more than 100 µM each time. In experiment [7], this compound showed a TGI of more than 100 µM.

Regarding `O=C(c1ccc(OCCN2CCCCC2)cc1)c1c(-c2ccc(O)cc2)sc2cc(O)ccc12`, the GI50 in experiment [1] was 12.1 µM and 11 µM; in [2], 10.8 µM and 18.5 µM; in experiment [10] it was 11.7 µM and 14.9 µM; in [4] it was 7.64 µM and 13.4 µM; in [5] it was 13.4 µM and 18.2 µM; in experiment [8], 16 µM and 20.6 µM. The GI50 in experiment [6] was 5.54 µM and 2.41 µM; in experiment [7], 4.49 µM and 9.32 µM. Moreover, the TGI in [1] is 27.2 µM and 25.7 µM; in experiment [2], 27 µM and 45.2 µM; in [10], 23.9 µM and 30.2 µM; in experiment [4] it was 22 µM and 39.2 µM; in [5] it was 31.5 µM and 51.3 µM; in experiment [8] it was 30.8 µM and 43.7 µM. Besides, the TGI was 77 µM and > 23.1 µM in experiment [6]; 15.3 µM and 34.3 µM in experiment [7].

As for `COc1ccc(-c2nsc3c2NC(=O)CC3c2ccc(F)cc2)cc1` (configuration not stated), the GI50 is 3.56 µM in experiment [1]; 6.1 µM in experiment [2]; 5.31 µM in [10]; 2.77 µM in experiment [4]; 5.66 µM in experiment [5]; 5.94 µM in [8]. Also, the GI50 in experiment [6] was 4.94 µM; in experiment [7], 3.13 µM. Besides, the TGI in experiment [1] was 67.8 µM; in [2] it was more than 100 µM; in experiment [10] it was more than 100 µM; in experiment [4] it was more than 100 µM; in experiment [5], more than 100 µM; in experiment [8], more than 100 µM. Besides, the TGI in experiment [6] and in experiment [7] was more than 100 µM throughout.

`Cc1ccc(S(=O)(=O)Oc2ccc([N+](=O)[O-])cc2[N+](=O)[O-])cc1`: the GI50 was 4.54 µM in experiment [1]; 6.15 µM in [2]; 11.4 µM in experiment [10]; 4.04 µM in experiment [4]; 4.24 µM in experiment [5]; 8.01 µM in experiment [8]. The values for the GI50 in [6] and in experiment [7] were 2.45 µM and 6.7 µM, respectively. The TGI in experiment [1] came to 18.2 µM; in experiment [2] it was 32.3 µM; in experiment [10], 23.5 µM; in experiment [4], 24.9 µM; in experiment [5], 20.5 µM; in [8] it was 26.6 µM. Further, the TGI in [6] was 7.84 µM; in experiment [7], 20 µM.
